In publication PMC5895059, “Scaffold hopping from (5-hydroxymethyl) isophthalates to multisubstituted pyrimidines diminishes binding affinity to the C1 domain of protein kinase C” (PLoS ONE, 2018):
pKi: −log10 of the molar value. Values joined by “and” are separate entries in the source; they are usually repeats but may differ in a detail not shown here. Equal values may be shown once.

How the values were obtained:
PKCα [1] = target: T1, PKCα (Homo sapiens, UniProt P17252); settings: read-out: Ki PKCα; cited from earlier work
PKCα and -δ = target: PKCα and -δ; design: method as in PMID 19438240; settings: for PKCα and -δ; cited from earlier work
PKCα [2] = target: T1, PKCα; test: [3H]PDBu displacement, 96-well plate filtration binding assay; settings: for Displacement assay raw data (CCPM): single replicate wells; for Residual [^3H]PDBu binding to PKCα (% of control): 20 μM compound concentration, mean + SEM, n = 2–8

Residual [^3H]PDBu binding to PKCα (% of control) (PKCα [2]) | Displacement of [^3H]PDBu from PKCα (in words) (PKCα [2]; concentration range of 0.2–30 μM) | Compound | pKi (PKCα [1]) | pKi (PKCα and -δ) | Displacement assay raw data (CCPM) (PKCα [2]; 0,2 µM test substance) | Displacement assay raw data (CCPM) (PKCα [2]; 1 µM test substance) | Displacement assay raw data (CCPM) (PKCα [2]; 4 µM test substance) | Displacement assay raw data (CCPM) (PKCα [2]; 10 µM test substance) | Displacement assay raw data (CCPM) (PKCα [2]; 20 µM test substance) | Displacement assay raw data (CCPM) (PKCα [2]; 30 µM test substance)
 |  | CC1=CC[C@H](C)C(C)(C)[C@@H]1/C=C/C(C)=C/CC[C@@]1(CO)[C@H](CCCO)/C(=C(/C)C=O)CC[C@]1(C)O [Iripallidal, iripallidal] | 7.12 |  |  |  |  |  |  | 
 |  | C/C=C(/C)C(=O)O[C@H]1C(C)=C[C@]23C(=O)[C@H](C=C(CO)[C@@H](O)[C@]12O)[C@H]1[C@@H](C[C@H]3C)C1(C)C [Ingenol 3-angelate, ingenol 3-angelate] | 10.00 |  |  |  |  |  |  | 
 |  | CCCCC(CC)OC(=O)c1cc(CO)cc(C(=O)OC(CC)CCCC)c1 (centres unmarked) [HMI-1b11] |  | 6.04 to 6.69 |  |  |  |  |  | 
 |  | CC(=O)O[C@@]12[C@H](O)[C@@H](C)[C@@]3(O)[C@@H](C=C(CO)C[C@]4(O)C(=O)C(C)=C[C@@H]34)[C@@H]1C2(C)C [Phorbol 13-acetate, phorbol 13-acetate] | 3.92 |  |  |  |  |  |  | 
 |  | CC(C)C1C(=O)NC(CO)Cc2c[nH]c3cccc(c23)N1C (centres unmarked) [Indolactam-V, indolactam-V] | 7.96 |  |  |  |  |  |  | 
106.7 ± 5.0 % of control |  | COC(=O)c1nc(CO)nc(OCc2cccc(C(F)(F)F)c2)c1C [Compound 2g, Methyl 2-(hydroxymethyl)-5-methyl-6-[[3-(trifluoromethyl)benzyl]oxy]pyrimidine-4-carboxylate] |  |  | 5444 CCPM and 5572 CCPM and 6419 CCPM and 5626 CCPM and 5372 CCPM and 5082 CCPM | 5331 CCPM and 5641 CCPM and 6328 CCPM and 5502 CCPM and 5786 CCPM and 5467 CCPM | 5858 CCPM and 5969 CCPM and 5764 CCPM and 5341 CCPM and 5546 CCPM and 5465 CCPM | 6071 CCPM and 6111 CCPM and 6173 CCPM and 5469 CCPM and 6077 CCPM and 5316 CCPM | 5096 CCPM and 6099 CCPM and 5970 CCPM and 5477 CCPM and 5384 CCPM and 5474 CCPM | 5416 CCPM and 5047 CCPM and 5574 CCPM and 5225 CCPM and 5482 CCPM and 5411 CCPM
87.2 ± 1.7 % of control |  | CCCCCCCOc1nc(CO)nc(C(=O)OC(CC)CCCC)c1C (centres unmarked) [Compound 2i, Heptan-3-yl 6-(heptyloxy)-2-(hydroxymethyl)-5-methylpyrimidine-4-carboxylate] |  |  | 4873 CCPM and 4870 CCPM and 5222 CCPM and 7916 CCPM and 8966 CCPM and 8933 CCPM | 5191 CCPM and 5217 CCPM and 5062 CCPM and 8605 CCPM and 8987 CCPM and 9227 CCPM | 5070 CCPM and 5217 CCPM and 5699 CCPM and 8553 CCPM and 8476 CCPM and 8686 CCPM | 4806 CCPM and 5282 CCPM and 4681 CCPM and 7955 CCPM and 8861 CCPM and 7525 CCPM | 4663 CCPM and 4781 CCPM and 4927 CCPM and 7593 CCPM and 7766 CCPM and 7574 CCPM | 4959 CCPM and 5003 CCPM and 5038 CCPM and 7682 CCPM and 7603 CCPM and 7191 CCPM
111.8 ± 6.5 % of control | could not displace | O=C(OCc1cccc(C(F)(F)F)c1)c1cc(C(=O)OCc2cccc(C(F)(F)F)c2)nc(CO)n1 [Compound 1g, Bis[3-(trifluoromethyl)benzyl] 2-(hydroxymethyl)pyrimidine-4,6-dicarboxylate] |  |  | 5983 CCPM and 11409 CCPM and 12180 CCPM and 12791 CCPM and 7834 CCPM and 6792 CCPM | 5197 CCPM and 12142 CCPM and 12212 CCPM and 11135 CCPM and 5159 CCPM and 5208 CCPM | 7023 CCPM and 11774 CCPM and 11597 CCPM and 12149 CCPM and 8091 CCPM and 7399 CCPM | 6399 CCPM and 11639 CCPM and 11927 CCPM and 11310 CCPM and 6008 CCPM and 6638 CCPM | 7300 CCPM and 11874 CCPM and 12244 CCPM and 12079 CCPM and 8018 CCPM and 7727 CCPM | 6005 CCPM and 11016 CCPM and 11803 CCPM and 12038 CCPM and 5730 CCPM and 6258 CCPM
 |  | CCCCCCCCCCc1ccc2c(c1)N[C@@H](C(C)C)C(=O)N[C@H](CO)C2 [9-Decyl-benzolactam-V8, 9-decyl-benzolactam-V8] | 8.42 |  |  |  |  |  |  | 
116.3 ± 5.9 % of control |  | CCOC(=O)c1cc(C(=O)OCC)nc(CO)n1 [Compound 1h, Diethyl 2-(hydroxymethyl)pyrimidine-4,6-dicarboxylate] |  |  | 6323 CCPM and 10230 CCPM and 10470 CCPM and 11100 CCPM and 5792 CCPM and 6513 CCPM | 5802 CCPM and 9840 CCPM and 9837 CCPM and 10294 CCPM and 5441 CCPM and 6766 CCPM | 5407 CCPM and 9299 CCPM and 9482 CCPM and 9928 CCPM and 5323 CCPM and 5809 CCPM | 6198 CCPM and 9686 CCPM and 9902 CCPM and 9890 CCPM and 6355 CCPM and 6092 CCPM | 6120 CCPM and 9294 CCPM and 10766 CCPM and 9965 CCPM and 5572 CCPM and 5876 CCPM | 5421 CCPM and 9318 CCPM and 10014 CCPM and 8246 CCPM and 4984 CCPM and 6346 CCPM
 |  | C=C(C)[C@@]12O[C@@]3(c4ccccc4)O[C@@H]1[C@@H]1[C@@H]4O[C@]4(CO)[C@@H](O)[C@]4(O)C(=O)C(C)=C[C@H]4[C@@]1(O3)[C@H](C)[C@H]2OC(=O)/C=C/C=C/c1ccccc1 [Mezerein, mezerein] | 9.57 |  |  |  |  |  |  | 
93.5 ± 6.5 % of control |  | CCCCCCCCOC(=O)c1nc(CO)nc(OCCCCCCCC)c1C [Compound 2c, Octyl 2-(hydroxymethyl)-5-methyl-6-(octyloxy)pyrimidine-4-carboxylate] |  |  | 12223 CCPM and 10832 CCPM and 10701 CCPM and 18273 CCPM and 16005 CCPM and 17696 CCPM | 12118 CCPM and 12391 CCPM and 11284 CCPM and 18079 CCPM and 16200 CCPM and 17048 CCPM | 10666 CCPM and 10448 CCPM and 9501 CCPM and 18957 CCPM and 15769 CCPM and 16408 CCPM | 10483 CCPM and 10217 CCPM and 10554 CCPM and 15009 CCPM and 15224 CCPM and 15278 CCPM | 10634 CCPM and 9873 CCPM and 9750 CCPM and 16572 CCPM and 15241 CCPM and 16254 CCPM | 11684 CCPM and 11210 CCPM and 10063 CCPM and 15855 CCPM and 15398 CCPM and 15526 CCPM
91.4 ± 2.3 % of control |  | CCCCC(CC)OC(=O)c1nc(CO)nc(OC(CC)CCCC)c1C (centres unmarked) [Compound 2e, Heptan-3-yl 6-(heptan-3-yloxy)-2-(hydroxymethyl)-5-methylpyrimidine-4-carboxylate] |  |  | 13386 CCPM and 12773 CCPM and 11586 CCPM and 9937 CCPM and 11273 CCPM and 11368 CCPM | 12486 CCPM and 13520 CCPM and 13561 CCPM and 10438 CCPM and 10771 CCPM and 10331 CCPM | 13244 CCPM and 12192 CCPM and 13129 CCPM and 11362 CCPM and 12373 CCPM and 12221 CCPM | 12416 CCPM and 12269 CCPM and 12041 CCPM and 10898 CCPM and 11193 CCPM and 10978 CCPM | 11475 CCPM and 10474 CCPM and 10581 CCPM and 9805 CCPM and 9920 CCPM and 10092 CCPM | 11584 CCPM and 10772 CCPM and 11119 CCPM and 8897 CCPM and 9568 CCPM and 9434 CCPM
